Experimental data as given in the supplement of paper PMC10307832.

Columns and labels:
Test in all cases: relative viability (nuclei count vs DMSO), 5 days (fraction); higher = more cells survive
COR-L 105 = system: COR-L 105
Method in brief: (§1)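 Lung cancer cell lines, seeded in 1536-well plates, were treated the following day by pin tool with a single drug or with five library-drug doses (not always all listed) in √10 steps on top of a fixed anchor-drug dose. Cells were fixed and nuclei stained in one step after 5 days, and nuclei were counted. Relative viability is the nuclei count for treated wells divided by that for vehicle wells, reported as medians of duplicate plates.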

NCI-H1755 = system: NCI-H1755
Method in brief: as §1

SK-MES-1 = system: SK-MES-1
Method in brief: as §1

NCI-H2023 = system: NCI-H2023
Method in brief: as §1

NCI-H1792 = system: NCI-H1792
Method in brief: as §1

COR-L23 = system: COR-L23
Method in brief: as §1

NCI-H2009 = system: NCI-H2009
Method in brief: as §1

NCI-H358 = system: NCI-H358
Method in brief: as §1

PC-14 = system: PC-14
Method in brief: as §1

LC-2-ad = system: LC-2-ad
Method in brief: as §1

NCI-H2347 = system: NCI-H2347
Method in brief: as §1

EMC-BAC-2 = system: EMC-BAC-2
Method in brief: as §1

NCI-H23 = system: NCI-H23
Method in brief: as §1

NCI-H1793 = system: NCI-H1793
Method in brief: as §1

NCI-H1437 = system: NCI-H1437
Method in brief: as §1

NCI-H650 = system: NCI-H650
Method in brief: as §1

201T = system: 201T
Method in brief: as §1

HCC-366 = system: HCC-366
Method in brief: as §1

NCI-H1395 = system: NCI-H1395
Method in brief: as §1

NCI-H1915 = system: NCI-H1915
Method in brief: as §1

HCC-15 = system: HCC-15
Method in brief: as §1

## CCNC(=O)c1noc(-c2cc(C(C)C)c(O)cc2O)c1-c1ccc(CN2CCOCC2)cc1 [Luminespib] + CS(=O)(=O)N1CCN(Cc2cc3nc(-c4cccc5[nH]ncc45)nc(N4CCOCC4)c3s2)CC1 [Pictilisib] (partner 1 µM)
COR-L 105; first compound 0.002 µM
  relative viability: 0.386
COR-L 105; first compound 0.006325 µM
  relative viability: 0.488
COR-L 105; first compound 0.02 µM
  relative viability: 0.248
COR-L 105; first compound 0.06325 µM
  relative viability: 0.223
COR-L 105; first compound 0.2 µM
  relative viability: 0.254
NCI-H1755; first compound 0.002 µM
  relative viability: 0.399
NCI-H1755; first compound 0.006325 µM
  relative viability: 0.372
NCI-H1755; first compound 0.02 µM
  relative viability: 0.351
NCI-H1755; first compound 0.06325 µM
  relative viability: 0.136
NCI-H1755; first compound 0.2 µM
  relative viability: 0.105
SK-MES-1; first compound 0.002 µM
  relative viability: 0.36
SK-MES-1; first compound 0.006325 µM
  relative viability: 0.418
SK-MES-1; first compound 0.02 µM
  relative viability: 0.271
SK-MES-1; first compound 0.06325 µM
  relative viability: 0.114
SK-MES-1; first compound 0.2 µM
  relative viability: 0.106
NCI-H2023; first compound 0.002 µM
  relative viability: 0.274
NCI-H2023; first compound 0.006325 µM
  relative viability: 0.243
NCI-H2023; first compound 0.02 µM
  relative viability: 0.105
NCI-H2023; first compound 0.06325 µM
  relative viability: 0.0887
NCI-H2023; first compound 0.2 µM
  relative viability: 0.0954
NCI-H1792; first compound 0.002 µM
  relative viability: 0.302
NCI-H1792; first compound 0.006325 µM
  relative viability: 0.273
NCI-H1792; first compound 0.02 µM
  relative viability: 0.13
NCI-H1792; first compound 0.06325 µM
  relative viability: 0.124
NCI-H1792; first compound 0.2 µM
  relative viability: 0.0905
COR-L23; first compound 0.002 µM
  relative viability: 0.856
COR-L23; first compound 0.006325 µM
  relative viability: 0.633
COR-L23; first compound 0.02 µM
  relative viability: 0.368
COR-L23; first compound 0.06325 µM
  relative viability: 0.0587
COR-L23; first compound 0.2 µM
  relative viability: 0.0601
NCI-H2009; first compound 0.002 µM
  relative viability: 0.855
NCI-H2009; first compound 0.006325 µM
  relative viability: 0.819
NCI-H2009; first compound 0.02 µM
  relative viability: 0.583
NCI-H2009; first compound 0.06325 µM
  relative viability: 0.0684
NCI-H2009; first compound 0.2 µM
  relative viability: 0.0548
NCI-H358; first compound 0.002 µM
  relative viability: 0.342
NCI-H358; first compound 0.006325 µM
  relative viability: 0.311
NCI-H358; first compound 0.02 µM
  relative viability: 0.222
NCI-H358; first compound 0.06325 µM
  relative viability: 0.133
NCI-H358; first compound 0.2 µM
  relative viability: 0.124
PC-14; first compound 0.002 µM
  relative viability: 0.698
PC-14; first compound 0.006325 µM
  relative viability: 0.588
PC-14; first compound 0.02 µM
  relative viability: 0.194
PC-14; first compound 0.06325 µM
  relative viability: 0.0484
PC-14; first compound 0.2 µM
  relative viability: 0.0383
LC-2-ad; first compound 0.002 µM
  relative viability: 0.526
LC-2-ad; first compound 0.006325 µM
  relative viability: 0.477
LC-2-ad; first compound 0.02 µM
  relative viability: 0.276
LC-2-ad; first compound 0.06325 µM
  relative viability: 0.11
LC-2-ad; first compound 0.2 µM
  relative viability: 0.0708
NCI-H2347; first compound 0.002 µM
  relative viability: 0.751
NCI-H2347; first compound 0.006325 µM
  relative viability: 0.609
NCI-H2347; first compound 0.02 µM
  relative viability: 0.45
NCI-H2347; first compound 0.06325 µM
  relative viability: 0.54
NCI-H2347; first compound 0.2 µM
  relative viability: 0.4
EMC-BAC-2; first compound 0.002 µM
  relative viability: 0.54
EMC-BAC-2; first compound 0.006325 µM
  relative viability: 0.511
EMC-BAC-2; first compound 0.02 µM
  relative viability: 0.417
EMC-BAC-2; first compound 0.06325 µM
  relative viability: 0.573
EMC-BAC-2; first compound 0.2 µM
  relative viability: 0.163
NCI-H23; first compound 0.002 µM
  relative viability: 0.475
NCI-H23; first compound 0.006325 µM
  relative viability: 0.486
NCI-H23; first compound 0.02 µM
  relative viability: 0.374
NCI-H23; first compound 0.06325 µM
  relative viability: 0.134
NCI-H23; first compound 0.2 µM
  relative viability: 0.157
NCI-H1793; first compound 0.002 µM
  relative viability: 0.313
NCI-H1793; first compound 0.006325 µM
  relative viability: 0.342
NCI-H1793; first compound 0.02 µM
  relative viability: 0.12
NCI-H1793; first compound 0.06325 µM
  relative viability: 0.168
NCI-H1793; first compound 0.2 µM
  relative viability: 0.194
NCI-H1437; first compound 0.002 µM
  relative viability: 0.343
NCI-H1437; first compound 0.006325 µM
  relative viability: 0.495
NCI-H1437; first compound 0.02 µM
  relative viability: 0.249
NCI-H1437; first compound 0.06325 µM
  relative viability: 0.133
NCI-H1437; first compound 0.2 µM
  relative viability: 0.0978
NCI-H650; first compound 0.002 µM
  relative viability: 1.09
NCI-H650; first compound 0.006325 µM
  relative viability: 0.851
NCI-H650; first compound 0.02 µM
  relative viability: 0.477
NCI-H650; first compound 0.06325 µM
  relative viability: 0.209
NCI-H650; first compound 0.2 µM
  relative viability: 0.127
201T; first compound 0.002 µM
  relative viability: 0.647
201T; first compound 0.006325 µM
  relative viability: 0.693
201T; first compound 0.02 µM
  relative viability: 0.649
201T; first compound 0.06325 µM
  relative viability: 0.721
201T; first compound 0.2 µM
  relative viability: 0.58
HCC-366; first compound 0.002 µM
  relative viability: 0.159
HCC-366; first compound 0.006325 µM
  relative viability: 0.156
HCC-366; first compound 0.02 µM
  relative viability: 0.116
HCC-366; first compound 0.06325 µM
  relative viability: 0.0429
HCC-366; first compound 0.2 µM
  relative viability: 0.0407
NCI-H1395; first compound 0.002 µM
  relative viability: 0.684
NCI-H1395; first compound 0.006325 µM
  relative viability: 0.725
NCI-H1395; first compound 0.02 µM
  relative viability: 0.429
NCI-H1395; first compound 0.06325 µM
  relative viability: 0.326
NCI-H1395; first compound 0.2 µM
  relative viability: 0.377
NCI-H1915; first compound 0.002 µM
  relative viability: 0.939
NCI-H1915; first compound 0.006325 µM
  relative viability: 0.729
NCI-H1915; first compound 0.02 µM
  relative viability: 0.567
NCI-H1915; first compound 0.06325 µM
  relative viability: 0.827
NCI-H1915; first compound 0.2 µM
  relative viability: 0.062
HCC-15; first compound 0.002 µM
  relative viability: 0.724
HCC-15; first compound 0.006325 µM
  relative viability: 0.644
HCC-15; first compound 0.02 µM
  relative viability: 0.623
HCC-15; first compound 0.06325 µM
  relative viability: 0.413
HCC-15; first compound 0.2 µM
  relative viability: 0.157
